Source: ChEMBL document CHEMBL1201862, “PubChem BioAssay data set” (2004)
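Each compound was tested at five concentrations against cells in 96-well plates for 48 hours. Here, GI50 denotes the concentration required for 50% inhibition of growth.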 Active and inactive are the calls of the source. Rule as the data show it: active = GI50 up to about 1.1 µM and inactive = higher.

What was measured:
Assay in all cases: inhibition of tumour cell growth, NCI panel, 48 h
[1] = test system: SF-268
[2] = test system: OVCAR-8
[3] = test system: MDA-MB-231
[4] = test system: TK-10
[5] = test system: SK-MEL-2
[6] = test system: EKVX
[7] = test system: DU-145
[8] = test system: BT-549
[9] = test system: Hs-578T
[10] = test system: SN12C
[11] = test system: SK-MEL-28
[12] = test system: HCC 2998
[13] = test system: KM12
[14] = test system: K562
[15] = test system: COLO 205
[16] = test system: 786-0
[17] = test system: SNB-75
[18] = test system: M14
[19] = test system: SNB-19

Row | Structure (SMILES) | GI50 [1] | GI50 [2] | GI50 [3] | GI50 [4] | GI50 [5] | GI50 [6] | GI50 [7] | GI50 [8] | GI50 [9] | GI50 [10] | GI50 [11] | GI50 [12] | GI50 [13] | GI50 [14] | GI50 [15] | GI50 [16] | GI50 [17] | GI50 [18] | GI50 [19]
1 | COc1ccc2o/c(=N/c3ccccc3)c(C(N)=O)cc2c1 | 47.3 µM (inactive) | > 67.5 µM (inactive) | > 53.3 µM (inactive) | > 49.2 µM (inactive) | > 100 µM (inactive) | > 25.5 µM (inactive) | > 100 µM (inactive) | 91 µM (inactive) | 42.9 µM (inactive) | > 100 µM (inactive) | > 100 µM (inactive) | > 100 µM (inactive) | > 100 µM (inactive) | > 100 µM (inactive) | > 100 µM (inactive) | > 57.8 µM (inactive) | 53.7 µM (inactive) | > 100 µM (inactive) | 
2 | COc1cc(OC)c2c(O)c3c(cc2c1)CC(C)(C)CC3=O | > 100 µM (inactive) | > 100 µM (inactive) | > 100 µM (inactive) | > 100 µM (inactive) | > 100 µM (inactive) | > 100 µM (inactive) | > 100 µM (inactive) | > 100 µM (inactive) | 16.3 µM (inactive) | > 100 µM (inactive) | 60.7 µM (inactive) | > 100 µM (inactive) | > 92.3 µM (inactive) |  | > 100 µM (inactive) | > 67.3 µM (inactive) | 49.7 µM (inactive) | > 100 µM (inactive) | > 100 µM (inactive)
3 | COc1cc2c(cc1OCCCC(=O)Nc1cc(C(=O)NCCCN(C)C)n(C)n1)N=CC1CCCN1C2=O (configuration not stated) | 16.2 µM (inactive) |  | 19.7 µM (inactive) | 7.4 µM (inactive) | 10.8 µM (inactive) | > 47.4 µM (inactive) | 12.9 µM (inactive) | 9.75 µM (inactive) | 11 µM (inactive) | 7.11 µM (inactive) | 5.46 µM (inactive) | 11.1 µM (inactive) | > 100 µM (inactive) | 0.123 µM (active) | 8.93 µM (inactive) | 6.46 µM (inactive) | 7.85 µM (inactive) | 8.34 µM (inactive) | 10 µM (inactive)
4 | CCOC(=O)C(NC(=O)CC)(Nc1ccc(S(=O)(=O)Nc2nc(C)cc(C)n2)cc1)C(F)(F)F (configuration not stated) | > 100 µM (inactive) | > 100 µM (inactive) | > 100 µM (inactive) | > 100 µM (inactive) | > 100 µM (inactive) | > 100 µM (inactive) | > 100 µM (inactive) | > 100 µM (inactive) | > 100 µM (inactive) | > 100 µM (inactive) | > 100 µM (inactive) | > 100 µM (inactive) | > 100 µM (inactive) | > 100 µM (inactive) | > 100 µM (inactive) | > 100 µM (inactive) | > 100 µM (inactive) | > 100 µM (inactive) | > 100 µM (inactive)
5 | CC1(C)C(=O)C2(OS(=O)(=O)C(F)(F)F)CCC1C2 (configuration not stated) | > 100 µM (inactive) | > 100 µM (inactive) | > 100 µM (inactive) | > 100 µM (inactive) | > 100 µM (inactive) | > 100 µM (inactive) | > 100 µM (inactive) | > 100 µM (inactive) | > 100 µM (inactive) | > 100 µM (inactive) | > 100 µM (inactive) | > 100 µM (inactive) | > 100 µM (inactive) | > 100 µM (inactive) | > 100 µM (inactive) | > 100 µM (inactive) | > 100 µM (inactive) | > 100 µM (inactive) | > 100 µM (inactive)
6 | N#CS/C(C(Cl)=C(Cl)Cl)=C(/Cl)[N+](=O)[O-] | 3.17 µM (inactive) | 1.75 µM (inactive) | 3.1 µM (inactive) | 2.23 µM (inactive) | 4.52 µM (inactive) | 4.46 µM (inactive) | 13.8 µM (inactive) | 2.24 µM (inactive) | 6.1 µM (inactive) | 2.21 µM (inactive) | 1.76 µM (inactive) | 18.6 µM (inactive) | 9.64 µM (inactive) | 0.603 µM (active) | 1.49 µM (inactive) | 1.68 µM (inactive) | 17.4 µM (inactive) | 1.31 µM (inactive) | 20.2 µM (inactive)
7 | CC(O)C1(O)C(O)CC(OC2c3cc4c(c(O)c3[C@@H]3C[C@@]2(C)OC32C=c3cc[nH]c3=N2)C(=O)c2cccc(O)c2C4=O)OC1C (some centres not stated) | 1.79 µM (inactive) | 0.959 µM (active) | 1.06 µM (active) | 1.71 µM (inactive) | 1.6 µM (inactive) | 1.11 µM (active) | 1.15 µM (inactive) | 5.56 µM (inactive) | 1.73 µM (inactive) | 0.607 µM (active) | 1.7 µM (inactive) | 1.11 µM (active) | 1.07 µM (active) | 0.935 µM (active) | 0.697 µM (active) | 1.04 µM (active) | 1.26 µM (inactive) | 1.34 µM (inactive) | 2.34 µM (inactive)
8 | COC1(CC[C@@H](C)COC2OC(CO)C(O)C(O)C2O)O[C@H]2C[C@H]3[C@@H]4CC=C5C[C@@H](OC6OC(CO)C(OC7OC(C)C(O)C(O)C7O)C(O)C6OC6OC(C)C(O)C(O)C6O)CC[C@]5(C)[C@H]4CC[C@]3(C)[C@H]2[C@@H]1C (some centres not stated) | 3.18 µM (inactive) | 3.53 µM (inactive) | 1.6 µM (inactive) | 17.2 µM (inactive) | 4.39 µM (inactive) | 22.1 µM (inactive) | 2.28 µM (inactive) | 3.52 µM (inactive) | 2.55 µM (inactive) | 5.85 µM (inactive) | 2.97 µM (inactive) | 3.74 µM (inactive) | 2.1 µM (inactive) | 18.2 µM (inactive) | 5.15 µM (inactive) | 2.02 µM (inactive) | 2.06 µM (inactive) | 2.55 µM (inactive) | 3.17 µM (inactive)
9 | C=C1C(=O)OC2/C=C(\CO)CC/C=C(\CO)CC(OC(=O)C(C)C)C12 (configuration not stated) | 13.9 µM (inactive) | 20 µM (inactive) | 20.1 µM (inactive) | 3.94 µM (inactive) | 16.5 µM (inactive) | 16.4 µM (inactive) | 12.7 µM (inactive) | 7.94 µM (inactive) | 19.9 µM (inactive) | 13.3 µM (inactive) | 6.27 µM (inactive) | 20.7 µM (inactive) | 18.2 µM (inactive) | 1.71 µM (inactive) | 2.16 µM (inactive) | 5.52 µM (inactive) | 16.5 µM (inactive) | 7.53 µM (inactive) | 21.5 µM (inactive)
10 | CC(=O)c1c2c(cc3c1CCC3)CCC2 | > 100 µM (inactive) | > 100 µM (inactive) | > 100 µM (inactive) | 49 µM (inactive) | > 100 µM (inactive) | 63.5 µM (inactive) | > 100 µM (inactive) | > 100 µM (inactive) | 76.6 µM (inactive) | > 100 µM (inactive) | > 100 µM (inactive) | > 100 µM (inactive) | > 100 µM (inactive) | 20.7 µM (inactive) | > 100 µM (inactive) | > 100 µM (inactive) | > 100 µM (inactive) | > 100 µM (inactive) | > 100 µM (inactive)
11 | CCCCCCCCCCCCCCCCCCNc1ccn(C2OC(COP(=O)(O)OC3CC(n4cc(F)c(=O)[nH]c4=O)OC3COP(=O)(O)OCC3OC(n4ccc(N)nc4=O)C(O)C3O)C(O)C2O)c(=O)n1 (configuration not stated) |  | 3.1 µM (inactive) | 26.2 µM (inactive) | 2.56 µM (inactive) | 18.1 µM (inactive) | 32 µM (inactive) | 1.08 µM (active) | 15.1 µM (inactive) | > 67.8 µM (inactive) | 15.8 µM (inactive) | 24.7 µM (inactive) | 2.35 µM (inactive) | 14.4 µM (inactive) | 16.6 µM (inactive) | 8.17 µM (inactive) | 1.31 µM (inactive) | 38.6 µM (inactive) | 0.453 µM (active) | 9.2 µM (inactive)
12 | C/C(=N\NC(=S)N(C)C)c1ccccn1 | < 0.0317 µM (active) | < 0.01 µM (active) | < 0.01 µM (active) | 0.564 µM (active) | 0.139 µM (active) | 0.0284 µM (active) | 0.161 µM (active) | 0.0111 µM (active) | 3.7 µM (inactive) | 0.057 µM (active) | 0.269 µM (active) | 0.161 µM (active) | 0.0307 µM (active) | < 0.01 µM (active) | < 0.01 µM (active) | < 0.0118 µM (active) | 0.486 µM (active) | < 0.01 µM (active) | 1.47 µM (inactive)
13 | Nc1ccc(-c2nc3cc(F)ccc3s2)cc1Cl | 25.5 µM (inactive) | 38.6 µM (inactive) | 5.08 µM (inactive) | 0.0357 µM (active) | 41.1 µM (inactive) | 1.17 µM (inactive) | 63.2 µM (inactive) | 8.15 µM (inactive) | 27.1 µM (inactive) | 23.3 µM (inactive) | > 85.5 µM (inactive) | < 0.01 µM (active) | 8.99 µM (inactive) | 14.8 µM (inactive) | 0.454 µM (active) | 25.8 µM (inactive) | 20.5 µM (inactive) | > 85.1 µM (inactive) | 32.4 µM (inactive)
14 | CSc1ccccc1P(CCP(c1ccccc1SC)c1ccccc1SC)c1ccccc1SC | 36.4 µM (inactive) | 8.73 µM (inactive) | 8.81 µM (inactive) | > 69 µM (inactive) | 53.3 µM (inactive) | 19.6 µM (inactive) | 54.5 µM (inactive) | 38.7 µM (inactive) | 28.7 µM (inactive) | 38.3 µM (inactive) | 76.2 µM (inactive) | 4.88 µM (inactive) | 18.6 µM (inactive) | 1.67 µM (inactive) | 0.697 µM (active) | 15.6 µM (inactive) | 13 µM (inactive) | 24.3 µM (inactive) | 35.4 µM (inactive)
